From paper PMC8117417, “Novel Trifluoromethyl Pyrimidinone Compounds With Activity Against Mycobacterium tuberculosis” (Frontiers in Chemistry, 2021)
≈ marks a conversion by molar mass, not a printed value. Where “and” joins values, the source holds several entries; their conditions need not be identical. Identical values can stand only once.

How the values were obtained:
[1] = tested on: Bacillus subtilis Marburg; experiment: Spectrum: MIC99 on solid medium, agar serial dilution; assay type: cell-based; parameters: unit not given here; details: minimum concentration required to reduce CFUs by 99%, values of two independent runs
[2] = tested on: M. tuberculosis H37Rv; experiment: Minimum inhibitory concentration (IC90) against fluorescent M. tuberculosis in liquid culture; details: for IC90: read-out: MTB IC90, concentration required to inhibit M. tuberculosis growth by 90%, aerobic culture, 5 days, 7H9-OADC-Tw; for MIC: MTB IC90 assay, Figure 1 primary hits and reference drugs in this assay
[3] = tested on: Escherichia coli DH5α; experiment: Spectrum: MIC99 on solid medium, agar serial dilution; assay type: cell-based; parameters: unit not given here; details: minimum concentration required to reduce CFUs by 99%, two independent runs
[4] = tested on: Saccharomyces cerevisiae Y187; experiment: as above; assay type: cell-based; parameters: unit not given here; details: minimum concentration required to reduce CFUs by 99%, values of two independent runs
[5] = tested on: K. pneumoniae; experiment: as above; assay type: cell-based; parameters: unit not given here; details: minimum concentration required to reduce CFUs by 99%, two independent runs
Description: Minimum inhibitory concentration to inhibit growth of 99% (MIC99) on solid medium was determined using the agar serial dilution method. Late log phase cultures were plated at ~10^5 colony-forming units (CFU)/mL onto solid medium containing 2-fold serial dilutions of compounds. The MIC99 is defined as the lowest concentration with ≤1% growth.

[6] = tested on: HepG2 human liver cells; experiment: Cytotoxicity against HepG2 cells (CellTiter-Glo); assay type: cell-based; details: concentration required to inhibit growth of HepG2 cells by 50%, 72 h exposure
Description: Cytotoxicity was measured after 72 h of compound exposure at 37°C and 5% CO2 using CellTiter-Glo (Promega).

[7] = tested on: Pseudomonas aeruginosa BAA 47; experiment: Spectrum: MIC99 on solid medium, agar serial dilution; assay type: cell-based; parameters: unit not given here; details: minimum concentration required to reduce CFUs by 99%, two independent runs
[8] = tested on: Staphylococcus aureus RN4220; experiment: as above; assay type: cell-based; parameters: unit not given here; details: minimum concentration required to reduce CFUs by 99%, values of two independent runs
[9] = tested on: Mycobacterium smegmatis mc^2155; experiment: Spectrum: MIC99 on solid medium, agar serial dilution; assay type: cell-based; parameters: unit not given here; details: minimum concentration required to reduce CFUs by 99%, two independent runs

Row | SMILES | MIC99 B. subtilis [1] | IC90 [2] [µM] | MIC99 E. coli [3] | MIC99 S. cerevisiae [4] | MIC99 K. pneumoniae [5] | IC50 ([6]; Homo sapiens, HepG2, 72 h) [µM] | MIC99 P. aeruginosa [7] | MIC99 S. aureus [8] | melting point [°C] | MIC99 M. smegmatis [9] | MIC [2] [µM] | IC50 [6] [µM]
1 | CCc1c(C(F)(F)F)nc(-c2ccccn2)[nH]c1=O [Compound 55, 5-Ethyl-2-(Pyridin-2-yl)-6-(Trifluoromethyl)Pyrimidin-4(3H)-One] | 6.3 and 5.0 | 3.7 ± 0.26 | >100 | 3.1 and 5.0 | >100 | 6.1 ± 1.3 | >100 | 6.3 and 5.0 | 122 to 124 | 100 |  | 
2 | O=c1[nH]c(-c2ccccn2)nc(C(F)(F)F)c1-c1ccc(F)cc1 [Compound 53, 5-(4-Fluorophenyl)-2-(Pyridin-2-yl)-6-(Trifluoromethyl)Pyrimidin-4(3H)-One] | 6.3, 6.3 | 3.8 ± 1.6 | >100 |  | >100 | 11 ± 6.9 | >100 | 3.1, 3.1 | 217 to 220 | >100 |  | 
3 | O=c1[nH]c(-c2ccccn2)nc(C(F)(F)F)c1Cc1ccc(F)cc1 [Compound 5, 5-(4-Fluorobenzyl)-2-(Pyridin-2-yl)-6-(Trifluoromethyl)Pyrimidin-4(3H)-One] | 12.5 and 6.3 | 1.7 ± 0.41 | >100 | 3.1, 3.1 | >100 | 3.2 ± 1.5 | >100 | 1.6, 1.6 | 183 to 185 | >100 | 1.7 ± 0.41 (≈ 0.594 µg/mL) | 
4 | Cc1c(C(F)(F)F)nc(-c2ncccc2O)[nH]c1=O [Compound 33, 2-(3-Hydroxypyridin-2-yl)-5-Methyl-6-(Trifluoromethyl)Pyrimidin-4(3H)-One] |  | 2.5 ± 1.1 | >100 | 3.1, 3.1 | >100 | 3.2 ± 1.6 | >100 | 3.1, 3.1 | 176 to 178 | 25 |  | 
5 | Cc1c(C(F)(F)F)nc(-c2ncccn2)[nH]c1=O [Compound 41, 5-Methyl-6-(Trifluoromethyl)-[2,2′-Bipyrimidin]-4(3H)-One] |  | > 20 |  |  |  | > 100 |  |  | 229 to 230 |  |  | 
6 | Cc1c(C(F)(F)F)nc(-c2ccccn2)[nH]c1=O [Compound 10, 5-Methyl-2-(Pyridin-2-yl)-6-(Trifluoromethyl)Pyrimidin-4(3H)-One] | 12.5, 12.5 | 2.9 | >100 | 6.3 and 12.5 | >100 | 7.3 | >100 | 12.5, 12.5 |  | 25 | 2.9 ± 0.47 (≈ 0.74 µg/mL) | 5.4 ± 3.1
7 | Cc1cnc(-c2ccccn2)[nH]c1=O [Compound 50, 5-Methyl-2-(Pyridin-2-yl)Pyrimidin-4(3H)-One] |  | > 20 |  |  |  | 50 ± 13 |  |  | 148 to 149 |  |  | 
8 | O=c1cc(C(F)(F)F)nc(-c2cccnc2)[nH]1 [Compound 20, 2-(Pyridin-3-yl)-6-(Trifluoromethyl)Pyrimidin-4(3H)-One] |  | > 20 |  |  |  | > 100 |  |  | 276 to 277 |  |  | 
9 | O=c1cc(C(F)(F)F)nc(-c2ccccc2)[nH]1 [Compound 24, 2-Phenyl-6-(Trifluoromethyl)Pyrimidin-4(3H)-One] |  | > 20 |  |  |  | > 100 |  |  | 225 to 227 |  |  | 
10 | Cc1c(C(F)(F)F)nc(-c2ccccc2C(F)(F)F)[nH]c1=O [Compound 42, 5-Methyl-6-(Trifluoromethyl)-2-(2-(Trifluoromethyl)Phenyl)pyrimidin-4(3H)-One] |  | > 20 |  |  |  | > 100 |  |  | 168 to 170 |  |  | 
11 | Cc1c(C(F)(F)F)nc(-c2ccccc2F)[nH]c1=O [Compound 36, 2-(2-Fluorophenyl)-5-Methyl-6-(Trifluoromethyl)pyrimidin-4(3H)-One] |  | > 20 |  |  |  | > 100 |  |  | 139 to 141 |  |  | 
12 | O=c1cc(C(F)(F)F)nc(-c2ccccc2O)[nH]1 [Compound 31, 2-(2-Hydroxyphenyl)-6-(Trifluoromethyl)Pyrimidin-4(3H)-One] |  | > 20 |  |  |  | 79 ± 7.8 |  |  | 236 to 238 |  |  | 
13 | Cc1c(C(F)(F)F)nc(-c2ccccc2Cl)[nH]c1=O [Compound 37, 2-(2-Chlorophenyl)-5-Methyl-6-(Trifluoromethyl)Pyrimidin-4(3H)-One] |  | > 20 |  |  |  | 86 ± 24 |  |  | 165 to 167 |  |  | 
14 | O=c1[nH]c(-c2ccccn2)nc(C(F)(F)F)c1C1CCCCC1 [Compound 58, 5-Cyclohexyl-2-(Pyridin-2-yl)-6-(Trifluoromethyl)Pyrimidin-4(3H)-One] |  | 4.1 ± 0.28 |  |  |  | 2.9 ± 0.28 |  |  | 220 to 221 |  |  | 
15 | Cc1c(C(F)(F)F)nc(-c2ccccc2OC(F)(F)F)[nH]c1=O [Compound 44, 5-Methyl-2-(2-(Trifluoromethoxy)Phenyl)-6-(Trifluoromethyl)Pyrimidin-4(3H)-One] |  | > 20 |  |  |  | > 100 |  |  | 167 to 168 |  |  | 
